Assay [1] addresses T1, human DNMT1 (hDNMT1) (Homo sapiens, UniProt P26358).
T1 construct: His; made in house
Kind of assay: DNMT1 assay ([methyl-3H]SAM, Flashplate). In kind it is biochemical. Particulars: mean of at least two independent experiments; read-out: Enzyme Inhibition (EC50 ± SD) hDNMT1. As to the method: His-DNMT1 (182 kDa, human) was cloned, expressed, and purified as described by Lee et al.. The DNMT1 assay was performed according to Gros et al.. […] The reaction was incubated 2 h at 37 °C, then 8 µL of the solution are transferred into a streptavidin 96-well scintillant coated Flashplate containing 190 µL of 20 mM SAH in 50 mM Tris–HCl (pH 7.4). The Flashplate is agitated for 1 h at room temperature and washed. The plate is read with TopCount (PerkinElmer). In this assay, the negative and positive controls were defined as wells without enzyme and wells with only DMSO, respectively.

Assay [2] concerns the target Akt1/PKBalpha (h) (Homo sapiens, UniProt P31749). Kind of assay: Kinase inhibitory assay (panel). As to conditions: read-out: % inhibition at 10 µM. In kind it is biochemical. As to the method:
(§1) Experimental procedure of kinase inhibitory assays
(§2) The test compound, reference compound or water (control) were mixed with the enzyme (for the exact amount see table below) in the appropriate buffer. Thereafter, the reaction was initiated by adding the required amount of the appropriate substrate and of ATP, and the mixture is incubated at room temperature (variable reaction time, see table below). For control basal measurements, the enzyme was omitted from the reaction mixture. Following incubation, the reaction was stopped by adding 13 mM
(§3) EDTA. After 5 min, the proper antibody labelled with europium chelate was added. After 60 more min, the fluorescence transfer was measured at λex=337 nm, λem=620 nm and λem=665 nm using a microplate reader (Envision, Perkin Elmer). The enzyme activity was determined by d ividing the signal measured at 665 nm by that measured at 620 nm (ratio). The results are expressed as a percent inhibition of the control enzyme activity. The standard inhibitory reference compound is staurosporine when not differently indicated (see tabl e below), which has been tested in each experiment at several concentrations to obtain an inhibition curve from which its IC 50 value is calculated.
(§4) • Assay volume and format: 10 µL in 384-well plate
(§5) • Compound addition: [100x] solution in solvent then [5x] solution in water • Maximum tolerable DMSO concentration: 1%

For assay [3], the target named is CDC2/CDK1 (h) (cycB) (Homo sapiens, UniProt P06493). Kind of assay: Kinase inhibitory assay (panel). In kind it is biochemical. Particulars: read-out: % inhibition at 10 µM. As to the method:
as §1, §2, §3, §4, §5

Assay [4] deals with Src kinase (h) (Homo sapiens, UniProt P12931). Kind of assay: Kinase inhibitory assay (panel). Particulars: read-out: % inhibition at 10 µM. In kind it is biochemical. As to the method: as §1, §2, §3, §4, §5
In assay [5] the target is Abl kinase (h) (Homo sapiens, UniProt P00519). Kind of assay: Kinase inhibitory assay (panel). In kind it is biochemical. Particulars: read-out: % inhibition at 10 µM. As to the method: as §1, §2, §3, §4, §5
Assay [6] deals with TRKA (h) (Homo sapiens, UniProt P04629). Kind of assay: Kinase inhibitory assay (panel). In kind it is biochemical. As to conditions: read-out: % inhibition at 10 µM. As to the method:
as §1, §2, §3, §4, §5

Assay [7] deals with PAK4 (h) (Homo sapiens, UniProt O96013). Kind of assay: Kinase inhibitory assay (panel). In kind it is biochemical. Particulars: read-out: % inhibition at 10 µM. How it is done: as §1, §2, §3, §4, §5
Assay [8] concerns the target IKKalpha (h) (Homo sapiens, UniProt O15111). Kind of assay: Kinase inhibitory assay (panel). In kind it is biochemical. As to conditions: read-out: % inhibition at 10 µM. As to the method:
as §1, §2, §3, §4, §5

The target in assay [9] is PKCbeta 2 (h) (Homo sapiens, UniProt P05771). Kind of assay: Kinase inhibitory assay (panel). In kind it is biochemical. As to conditions: read-out: % inhibition at 10 µM. As to the method:
as §1, §2, §3, §4, §5

Assay [10] addresses JAK3 (h) (Homo sapiens, UniProt P52333). Kind of assay: Kinase inhibitory assay (panel). In kind it is biochemical. Particulars: read-out: % inhibition at 10 µM. How it is done: as §1, §2, §3, §4, §5
In assay [11] the target is IRK (h) (InsR) (Homo sapiens, UniProt P06213). Kind of assay: Kinase inhibitory assay (panel). In kind it is biochemical. Particulars: read-out: % inhibition at 10 µM. As to the method: as §1, §2, §3, §4, §5
The target in assay [12] is RAF-1 kinase (h) (Homo sapiens, UniProt P04049). Kind of assay: Kinase inhibitory assay (panel). As to conditions: read-out: % inhibition at 10 µM. In kind it is biochemical. As to the method:
as §1, §2, §3, §4, §5

Assay [13] relates to peripheral blood B lymphocyte AHH1 cells. Kind of assay: Differential toxicity, antiproliferative assay. In kind it is cell-based. Particulars: Homo sapiens, AHH-1; 48 h treatment; read-out: IC50 against AHH1 cells. How it is done:
U937 histiocytic lymphoma, HL60 acute promyelocytic leukemia, H1299 lung adenocarcinoma, MCF7 breast carcinoma, HT1080 fibrosarcoma, M14 melanoma, HeLa epithelial cervix carcinoma and peripheral blood B lymphocyte AHH1 human cell lines were obtained from the Deutsche Sammlung für Mikroorganismen and Zellkulturen (DSZM, Braunschweig, Germany) and were maintained in RPMI 1640 medium contained 10% fetal bovine serum (FBS), 2 mM L-glutamine, and antibiotics in a humidified atmosphere with 5% CO2 at 37 °C. […]
Then, increasing concentrations of different compounds (ranging from 0.01 to 100 μM) were added, and cell proliferation was evaluated by a MTT assay after 48 h. […] The effect of compounds was evaluated using the CellTiter-Glo luminescent cell viability assay (Promega, Madison, WI, USA) according to the manufacturer’s instructions. […] After treatments, MTT solution was added for 3 h at 0.5 mg/mL, the obtained crystals were dissolved in DMSO (Sigma-Aldrich, Milan, Italy), and the absorbance was read at a wavelength of 570 nm with reader TECAN M-200. […]
IC50 values of compounds against cellular viability were determined by using nonlinear regression fitting curves with GraphPad Prism 8. […]

In assay [14] the target is T2, DNMT3A protein (Homo sapiens, UniProt Q9Y6K1).
T2 construct: endogenous in cells; host or cells: HCT116
Kind of assay: Western blot of DNMT3A protein level in HCT116 cells. In kind it is cell-based. Particulars: 24 h. The text has this:
Cells were lysed in Laemmli buffer; subsequently the proteins were resolved by sodium dodecyl sulphate-polyacrylamide gel electrophoresis and transferred to a 0.45 µm nitrocellulose membrane (Bio-Rad Laboratories, Hercules, CA, USA). The following primary antibodies were used for immunoblotting: α-DNMT1 (Novus Biologicals, Littleton, CO, USA). α-DNMT3a (SantaCruz Bio-technologies, CA, USA) and α-GAPDH (Millipore Corp., Bedford, MA USA), used as a loading control. The immune complexes were detected with horseradish peroxidase-conjugated species-specific secondary antiserum (Bio-Rad Laboratories, Hercules, CA, USA) then by enhanced chemiluminescence reaction (Bio-Rad Laboratories, Hercules, CA, USA). Densitometric analysis of protein expression was performed by using the Fiji-Image J image processing package.

T2 sequence (Q9Y6K1 whole entry, looked up): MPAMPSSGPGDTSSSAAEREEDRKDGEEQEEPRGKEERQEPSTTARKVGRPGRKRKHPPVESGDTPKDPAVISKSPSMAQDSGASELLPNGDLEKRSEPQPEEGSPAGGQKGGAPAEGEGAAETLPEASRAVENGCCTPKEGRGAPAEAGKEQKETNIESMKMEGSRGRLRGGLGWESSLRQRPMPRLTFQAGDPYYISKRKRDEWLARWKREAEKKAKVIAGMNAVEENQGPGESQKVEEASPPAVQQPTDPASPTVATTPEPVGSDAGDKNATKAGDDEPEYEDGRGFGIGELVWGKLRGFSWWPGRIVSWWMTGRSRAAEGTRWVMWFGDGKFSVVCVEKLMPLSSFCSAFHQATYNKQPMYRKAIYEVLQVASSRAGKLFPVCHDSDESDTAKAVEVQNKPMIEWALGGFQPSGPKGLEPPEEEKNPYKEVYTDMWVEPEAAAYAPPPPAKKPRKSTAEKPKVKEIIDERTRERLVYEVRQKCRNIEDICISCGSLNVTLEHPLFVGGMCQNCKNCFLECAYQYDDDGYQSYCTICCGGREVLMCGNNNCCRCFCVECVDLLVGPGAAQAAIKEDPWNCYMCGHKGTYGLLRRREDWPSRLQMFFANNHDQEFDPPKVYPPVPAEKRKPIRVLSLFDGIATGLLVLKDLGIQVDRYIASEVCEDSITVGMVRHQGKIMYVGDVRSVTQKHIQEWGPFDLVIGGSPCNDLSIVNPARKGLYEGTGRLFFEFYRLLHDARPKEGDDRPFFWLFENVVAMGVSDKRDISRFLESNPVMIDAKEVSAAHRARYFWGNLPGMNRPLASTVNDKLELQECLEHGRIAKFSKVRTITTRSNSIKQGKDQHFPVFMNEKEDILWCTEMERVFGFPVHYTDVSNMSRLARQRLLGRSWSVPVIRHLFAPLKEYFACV
T1 sequence (P26358 whole entry): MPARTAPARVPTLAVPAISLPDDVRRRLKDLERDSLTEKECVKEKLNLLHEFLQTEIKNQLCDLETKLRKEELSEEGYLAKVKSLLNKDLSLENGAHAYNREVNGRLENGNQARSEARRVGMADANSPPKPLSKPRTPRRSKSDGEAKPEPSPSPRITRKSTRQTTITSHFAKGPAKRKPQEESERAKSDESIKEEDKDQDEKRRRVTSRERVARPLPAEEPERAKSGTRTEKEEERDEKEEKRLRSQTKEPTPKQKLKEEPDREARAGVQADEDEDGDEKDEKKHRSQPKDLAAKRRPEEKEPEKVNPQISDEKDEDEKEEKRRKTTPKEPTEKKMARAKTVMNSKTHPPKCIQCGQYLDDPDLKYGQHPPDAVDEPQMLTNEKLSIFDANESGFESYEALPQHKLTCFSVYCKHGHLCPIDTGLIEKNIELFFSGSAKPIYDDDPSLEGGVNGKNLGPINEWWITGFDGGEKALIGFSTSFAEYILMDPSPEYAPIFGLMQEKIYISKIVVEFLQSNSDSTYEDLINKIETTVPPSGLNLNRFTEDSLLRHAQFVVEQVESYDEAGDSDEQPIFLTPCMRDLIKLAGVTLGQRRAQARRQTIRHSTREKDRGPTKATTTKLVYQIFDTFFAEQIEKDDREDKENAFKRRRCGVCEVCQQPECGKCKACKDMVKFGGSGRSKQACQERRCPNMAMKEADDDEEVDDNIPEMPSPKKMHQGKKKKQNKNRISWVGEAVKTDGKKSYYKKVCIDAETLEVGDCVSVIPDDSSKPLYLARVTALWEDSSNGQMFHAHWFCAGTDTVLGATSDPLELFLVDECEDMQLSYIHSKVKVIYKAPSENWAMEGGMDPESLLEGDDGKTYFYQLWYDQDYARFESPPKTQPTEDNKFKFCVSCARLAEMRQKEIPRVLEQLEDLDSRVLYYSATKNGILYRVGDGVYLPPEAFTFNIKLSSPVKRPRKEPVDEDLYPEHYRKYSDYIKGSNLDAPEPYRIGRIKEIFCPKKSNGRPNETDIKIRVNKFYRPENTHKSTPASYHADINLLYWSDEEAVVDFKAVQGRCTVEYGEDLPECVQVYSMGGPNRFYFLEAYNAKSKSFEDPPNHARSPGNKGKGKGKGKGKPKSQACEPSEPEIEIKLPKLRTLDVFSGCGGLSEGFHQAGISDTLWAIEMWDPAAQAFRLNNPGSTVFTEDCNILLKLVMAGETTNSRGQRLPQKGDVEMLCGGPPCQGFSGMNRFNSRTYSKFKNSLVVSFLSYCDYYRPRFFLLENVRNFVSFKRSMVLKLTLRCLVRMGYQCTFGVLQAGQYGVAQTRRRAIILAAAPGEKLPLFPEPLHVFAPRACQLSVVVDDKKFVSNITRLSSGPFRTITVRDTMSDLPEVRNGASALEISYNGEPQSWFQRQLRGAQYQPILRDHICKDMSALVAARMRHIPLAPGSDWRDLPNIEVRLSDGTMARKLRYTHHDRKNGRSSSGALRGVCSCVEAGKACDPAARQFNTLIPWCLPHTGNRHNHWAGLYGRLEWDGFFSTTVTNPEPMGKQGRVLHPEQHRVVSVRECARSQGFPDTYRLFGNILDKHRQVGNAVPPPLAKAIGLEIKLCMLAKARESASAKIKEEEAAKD
Chain of PKCbeta 2 (h) (P05771 1-673 isoform P05771-2): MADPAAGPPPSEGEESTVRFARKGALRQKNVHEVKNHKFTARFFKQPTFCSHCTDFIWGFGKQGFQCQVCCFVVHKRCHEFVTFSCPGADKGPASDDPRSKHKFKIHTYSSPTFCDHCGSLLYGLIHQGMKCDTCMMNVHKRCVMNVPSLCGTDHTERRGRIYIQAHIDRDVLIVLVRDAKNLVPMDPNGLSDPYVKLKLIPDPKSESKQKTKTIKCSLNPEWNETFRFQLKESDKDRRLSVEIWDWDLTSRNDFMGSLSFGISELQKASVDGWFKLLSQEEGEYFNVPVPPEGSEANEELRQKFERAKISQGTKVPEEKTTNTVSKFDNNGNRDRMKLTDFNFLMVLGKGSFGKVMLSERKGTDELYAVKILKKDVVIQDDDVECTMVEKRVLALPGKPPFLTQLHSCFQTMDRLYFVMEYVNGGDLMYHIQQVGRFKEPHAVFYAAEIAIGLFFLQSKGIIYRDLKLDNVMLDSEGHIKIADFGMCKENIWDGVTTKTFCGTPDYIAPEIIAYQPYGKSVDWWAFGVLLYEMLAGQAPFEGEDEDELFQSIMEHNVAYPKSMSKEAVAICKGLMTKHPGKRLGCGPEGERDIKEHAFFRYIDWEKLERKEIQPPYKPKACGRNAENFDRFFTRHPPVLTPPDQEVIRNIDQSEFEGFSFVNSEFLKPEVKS
Chain of TRKA (h) (P04629 33-796): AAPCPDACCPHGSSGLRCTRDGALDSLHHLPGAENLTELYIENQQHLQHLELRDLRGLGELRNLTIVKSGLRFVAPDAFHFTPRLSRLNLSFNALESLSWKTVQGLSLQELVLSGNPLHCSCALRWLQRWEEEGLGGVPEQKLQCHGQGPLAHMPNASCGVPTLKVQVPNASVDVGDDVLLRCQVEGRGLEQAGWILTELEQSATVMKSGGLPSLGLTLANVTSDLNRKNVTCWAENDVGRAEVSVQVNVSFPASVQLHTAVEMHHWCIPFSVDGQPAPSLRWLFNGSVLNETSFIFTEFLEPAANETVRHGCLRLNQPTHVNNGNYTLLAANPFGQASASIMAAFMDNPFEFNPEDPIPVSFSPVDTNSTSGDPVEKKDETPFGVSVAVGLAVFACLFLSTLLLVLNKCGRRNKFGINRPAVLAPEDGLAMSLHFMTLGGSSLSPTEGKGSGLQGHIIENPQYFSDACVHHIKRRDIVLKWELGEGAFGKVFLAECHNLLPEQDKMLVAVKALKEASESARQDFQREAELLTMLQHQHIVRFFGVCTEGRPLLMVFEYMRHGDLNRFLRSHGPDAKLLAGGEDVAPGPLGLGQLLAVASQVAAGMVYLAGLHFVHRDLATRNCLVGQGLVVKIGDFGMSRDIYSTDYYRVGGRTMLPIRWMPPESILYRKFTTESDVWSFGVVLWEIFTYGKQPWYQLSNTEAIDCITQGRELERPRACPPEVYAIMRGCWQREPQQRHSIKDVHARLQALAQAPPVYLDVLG
Chain of IKKalpha (h) (O15111 whole entry): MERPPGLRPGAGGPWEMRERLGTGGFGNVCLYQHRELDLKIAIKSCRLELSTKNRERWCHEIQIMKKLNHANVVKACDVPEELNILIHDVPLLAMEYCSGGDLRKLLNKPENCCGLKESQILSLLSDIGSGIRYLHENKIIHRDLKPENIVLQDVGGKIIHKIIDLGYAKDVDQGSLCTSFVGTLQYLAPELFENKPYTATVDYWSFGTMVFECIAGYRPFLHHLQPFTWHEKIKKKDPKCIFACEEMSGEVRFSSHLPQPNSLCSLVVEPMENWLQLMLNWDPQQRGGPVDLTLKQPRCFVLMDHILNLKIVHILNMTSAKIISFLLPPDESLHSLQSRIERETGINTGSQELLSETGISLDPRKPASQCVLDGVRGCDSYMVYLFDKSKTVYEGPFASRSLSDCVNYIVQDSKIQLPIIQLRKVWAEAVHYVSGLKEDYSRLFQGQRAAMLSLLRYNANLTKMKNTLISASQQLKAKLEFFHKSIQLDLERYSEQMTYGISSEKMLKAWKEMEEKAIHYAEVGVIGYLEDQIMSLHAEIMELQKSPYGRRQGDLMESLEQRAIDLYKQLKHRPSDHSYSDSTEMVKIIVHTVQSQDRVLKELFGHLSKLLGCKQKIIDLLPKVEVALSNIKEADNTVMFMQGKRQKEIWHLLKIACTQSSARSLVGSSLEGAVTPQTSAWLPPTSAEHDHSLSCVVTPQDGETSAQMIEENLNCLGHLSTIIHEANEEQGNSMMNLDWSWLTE

In the case of `O=C(Nc1ccc(Nc2ccnc3ccccc23)cc1)c1cccc(Nc2ccnc3ccccc23)c1` [Compound 2a], the EC50 in assay [1] was 23 ± 4 µM. Further, the inhibition at 10 µM was -178% in [2]; 16% in assay [3]; 94% in [4]; 0% in [5]; 98% in assay [6]; -17% in assay [7]. Besides, the inhibition at 10 µM is 70% in [8]; 79% in [9]; -100% in assay [10]; 86% in [11]; 79% in assay [12].
`O=C(Nc1cccc(Nc2ccnc3ccccc23)c1)c1cccc(Nc2ccnc3ccccc23)c1` [Compound 2b]: the concentration for half-maximal inhibition (IC50) in assay [13] was determined as 3.3 µM. Also, the “DNMT3A protein level (western blot)” value in assay [14] (HCT116, 1 µM) is given as “decrease”. The inhibition at 10 µM in assay [4] was found to be 94%; in assay [6] it was 98%; in assay [8], 70%; in assay [9], 79%; in assay [11] it was 86%; in assay [12] it was 79%.
Regarding `O=C(Nc1cccc(Nc2ccnc3ccccc23)c1)c1ccc(Nc2ccnc3ccccc23)cc1` [Compound 2c], the EC50 in assay [1] stood at 22 ± 3 µM.
Regarding `O=C(Nc1cccc(NC(=O)c2ccc(Nc3ccnc4ccccc34)cc2)c1)OCc1ccccc1` [Compound 4c], the IC50 in [13] turned out to be 9.6 µM. In addition, the “DNMT3A protein level (western blot)” value in assay [14] (HCT116, 0.1 µM) was “decrease”; in [14] (HCT116, 1 µM) it was “decrease”. Further, the “DNMT3A protein level (western blot) with bortezomib” value in assay [14] (HCT116, 1 µM, co-treated with bortezomib 10 nM) was “rescued”.

In general, EC50 refers to the concentration needed to bring the measured effect to its halfway point. As a reminder, the inhibition is the drop in the measured response relative to a control, in per cent. The IC50 is the concentration that inhibits the measured activity by half.

The record behind these values is paper PMC7073229, “Novel Quinoline Compounds Active in Cancer Cells through Coupled DNA Methyltransferase Inhibition and Degradation” (Cancers, 2020).
